# Laboratory results: PubChem BioAssay (NCI)
#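 Method: 48-hour compound exposure of cells in 96-well plates, five concentrations, linear interpolation of endpoints. GI50: concentration for 50% inhibition of growth. The concentration for full growth arrest is given as TGI.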
# Legend:
# Assay in all cases: DTP human tumour cell line panel, 48 h
# SK-MEL-28 melanoma = test system: SK-MEL-28 melanoma
# HS 578T breast = test system: HS 578T breast
# BT-549 breast = test system: BT-549 breast
# ACHN renal = test system: ACHN renal
# IGROV1 ovarian = test system: IGROV1 ovarian
# SF-295 CNS = test system: SF-295 CNS
# SK-MEL-5 melanoma = test system: SK-MEL-5 melanoma
# HCT-15 colon = test system: HCT-15 colon
# TK-10 renal = test system: TK-10 renal
# NCI-H460 lung = test system: NCI-H460 lung
# NCI-H23 lung = test system: NCI-H23 lung
# K-562 leukemia = test system: K-562 leukemia
# A498 renal = test system: A498 renal
# CCRF-CEM leukemia = test system: CCRF-CEM leukemia
# DU-145 prostate = test system: DU-145 prostate
# NCI-H226 lung = test system: NCI-H226 lung
# NCI/ADR-RES ovarian = test system: NCI/ADR-RES ovarian
# COLO 205 colon = test system: COLO 205 colon
# SF-539 CNS = test system: SF-539 CNS
# UO-31 renal = test system: UO-31 renal
# HOP-62 NSCLC = test system: HOP-62 NSCLC
# OVCAR-4 ovarian = test system: OVCAR-4 ovarian
# HCT-116 colon = test system: HCT-116 colon
# SNB-19 CNS = test system: SNB-19 CNS
# KM12 colon = test system: KM12 colon
# SNB-75 CNS = test system: SNB-75 CNS
# UACC-62 melanoma = test system: UACC-62 melanoma
# CAKI-1 renal = test system: CAKI-1 renal
# M14 melanoma = test system: M14 melanoma
# MDA-MB-231 breast = test system: MDA-MB-231 breast
# SF-268 CNS = test system: SF-268 CNS
# SR leukemia = test system: SR leukemia
# HL-60(TB) leukemia = test system: HL-60(TB) leukemia
# SK-OV-3 ovarian = test system: SK-OV-3 ovarian
# LOX IMVI melanoma = test system: LOX IMVI melanoma
# HOP-92 NSCLC = test system: HOP-92 NSCLC
# OVCAR-8 ovarian = test system: OVCAR-8 ovarian
# UACC-257 melanoma = test system: UACC-257 melanoma
# SW-620 colon = test system: SW-620 colon
# EKVX NSCLC = test system: EKVX NSCLC
# HCC-2998 colon = test system: HCC-2998 colon
# T-47D breast = test system: T-47D breast
# SK-MEL-2 melanoma = test system: SK-MEL-2 melanoma
# RPMI-8226 leukemia = test system: RPMI-8226 leukemia
# 786-0 renal = test system: 786-0 renal
# U251 CNS = test system: U251 CNS
# PC-3 prostate = test system: PC-3 prostate
# MOLT-4 leukemia = test system: MOLT-4 leukemia
# MDA-MB-435 = test system: MDA-MB-435
# RXF 393 renal = test system: RXF 393 renal
# MCF7 breast = test system: MCF7 breast
# HT29 colon = test system: HT29 colon
# OVCAR-3 ovarian = test system: OVCAR-3 ovarian
# OVCAR-5 ovarian = test system: OVCAR-5 ovarian
# NCI-H522 lung = test system: NCI-H522 lung
# SN12C renal = test system: SN12C renal
# A549 NSCLC = test system: A549 NSCLC
compound,measurement,setting,value
CC1=NN(c2nc(N)nc(C(C)Cl)n2)C(C)(C)C1 (centres undefined),TGI,SK-MEL-28 melanoma,> 100 µM
same,TGI,HS 578T breast,> 100 µM
same,TGI,BT-549 breast,> 100 µM
same,TGI,ACHN renal,> 100 µM
same,TGI,IGROV1 ovarian,> 100 µM
same,TGI,SF-295 CNS,> 100 µM
same,TGI,SK-MEL-5 melanoma,> 100 µM
same,TGI,HCT-15 colon,> 100 µM
same,TGI,TK-10 renal,> 100 µM
same,TGI,NCI-H460 lung,> 100 µM
same,TGI,NCI-H23 lung,> 100 µM
same,TGI,K-562 leukemia,> 100 µM
same,TGI,A498 renal,> 100 µM
same,TGI,CCRF-CEM leukemia,> 100 µM
same,TGI,DU-145 prostate,> 100 µM
same,TGI,NCI-H226 lung,> 100 µM
same,TGI,NCI/ADR-RES ovarian,> 100 µM
same,TGI,COLO 205 colon,> 100 µM
same,TGI,SF-539 CNS,> 100 µM
same,TGI,UO-31 renal,> 100 µM
same,TGI,HOP-62 NSCLC,> 100 µM
same,TGI,OVCAR-4 ovarian,> 100 µM
same,TGI,HCT-116 colon,> 100 µM
same,TGI,SNB-19 CNS,> 100 µM
same,TGI,KM12 colon,> 100 µM
same,TGI,SNB-75 CNS,> 100 µM
same,TGI,UACC-62 melanoma,> 100 µM
same,TGI,CAKI-1 renal,> 100 µM
same,TGI,M14 melanoma,> 100 µM
same,TGI,MDA-MB-231 breast,> 100 µM
same,TGI,SF-268 CNS,> 100 µM
same,TGI,SR leukemia,> 100 µM
same,TGI,HL-60(TB) leukemia,> 100 µM
same,TGI,SK-OV-3 ovarian,> 100 µM
same,TGI,LOX IMVI melanoma,> 100 µM
same,TGI,HOP-92 NSCLC,> 100 µM
same,TGI,OVCAR-8 ovarian,> 100 µM
same,TGI,UACC-257 melanoma,> 100 µM
same,TGI,SW-620 colon,> 100 µM
same,TGI,EKVX NSCLC,> 100 µM
same,TGI,HCC-2998 colon,> 100 µM
same,TGI,T-47D breast,> 100 µM
same,TGI,SK-MEL-2 melanoma,> 100 µM
same,TGI,RPMI-8226 leukemia,> 100 µM
same,TGI,786-0 renal,> 100 µM
same,TGI,U251 CNS,> 100 µM
same,TGI,PC-3 prostate,> 100 µM
same,TGI,MOLT-4 leukemia,> 100 µM
same,TGI,MDA-MB-435,> 100 µM
same,TGI,RXF 393 renal,> 100 µM
same,TGI,MCF7 breast,> 100 µM
same,TGI,HT29 colon,> 100 µM
CCSCC1CC(O)(c2ccccc2)C(c2ccccc2)C(c2ccc(F)cc2)O1 (centres undefined),GI50,SK-MEL-28 melanoma,1.74 µM
same,TGI,SK-MEL-28 melanoma,3.4 µM
same,GI50,HS 578T breast,1.83 µM
same,TGI,HS 578T breast,4.88 µM
same,GI50,OVCAR-3 ovarian,2.19 µM
same,TGI,OVCAR-3 ovarian,5.26 µM
same,GI50,BT-549 breast,2.31 µM
same,TGI,BT-549 breast,7.72 µM
same,GI50,ACHN renal,2.22 µM
same,TGI,ACHN renal,5.54 µM
same,GI50,IGROV1 ovarian,2.68 µM
same,TGI,IGROV1 ovarian,7.12 µM
same,GI50,SK-MEL-5 melanoma,1.47 µM
same,TGI,SK-MEL-5 melanoma,2.82 µM
same,GI50,HCT-15 colon,1.76 µM
same,TGI,HCT-15 colon,3.99 µM
same,GI50,TK-10 renal,2.6 µM
same,TGI,TK-10 renal,7.28 µM
same,GI50,NCI-H460 lung,1.83 µM
same,TGI,NCI-H460 lung,4.01 µM
same,GI50,NCI-H23 lung,2.01 µM
same,TGI,NCI-H23 lung,4.87 µM
same,GI50,K-562 leukemia,2.11 µM
same,TGI,K-562 leukemia,6.53 µM
same,GI50,A498 renal,2.15 µM
same,TGI,A498 renal,3.7 µM
same,GI50,CCRF-CEM leukemia,3.15 µM
same,TGI,CCRF-CEM leukemia,32.1 µM
same,GI50,DU-145 prostate,2.75 µM
same,TGI,DU-145 prostate,6.99 µM
same,GI50,OVCAR-5 ovarian,2.08 µM
same,TGI,OVCAR-5 ovarian,4.91 µM
same,GI50,NCI-H226 lung,1.97 µM
same,TGI,NCI-H226 lung,4.89 µM
same,GI50,NCI/ADR-RES ovarian,1.89 µM
same,TGI,NCI/ADR-RES ovarian,6.67 µM
same,GI50,NCI-H522 lung,1.57 µM
same,TGI,NCI-H522 lung,4.84 µM
same,GI50,COLO 205 colon,1.81 µM
same,TGI,COLO 205 colon,3.84 µM
same,GI50,SF-539 CNS,1.6 µM
same,TGI,SF-539 CNS,3.07 µM
same,GI50,UO-31 renal,1.71 µM
same,TGI,UO-31 renal,6.46 µM
same,GI50,HOP-62 NSCLC,2.08 µM
same,TGI,HOP-62 NSCLC,4.52 µM
same,GI50,OVCAR-4 ovarian,2.41 µM
same,TGI,OVCAR-4 ovarian,8.04 µM
same,GI50,HCT-116 colon,1.47 µM
same,TGI,HCT-116 colon,3.22 µM
same,GI50,SNB-19 CNS,2.05 µM
same,TGI,SNB-19 CNS,7.6 µM
same,GI50,KM12 colon,1.9 µM
same,TGI,KM12 colon,3.81 µM
same,GI50,SNB-75 CNS,1.52 µM
same,TGI,SNB-75 CNS,3.67 µM
same,GI50,UACC-62 melanoma,1.91 µM
same,TGI,UACC-62 melanoma,5.5 µM
same,GI50,CAKI-1 renal,1.58 µM
same,TGI,CAKI-1 renal,3.48 µM
same,GI50,SN12C renal,1.89 µM
same,TGI,SN12C renal,5.25 µM
same,GI50,M14 melanoma,1.74 µM
same,TGI,M14 melanoma,3.23 µM
same,GI50,MDA-MB-231 breast,2.58 µM
same,TGI,MDA-MB-231 breast,8.3 µM
same,GI50,SF-268 CNS,2.15 µM
same,TGI,SF-268 CNS,5.45 µM
same,GI50,SR leukemia,1.98 µM
same,TGI,SR leukemia,5.85 µM
same,GI50,A549 NSCLC,2.15 µM
same,TGI,A549 NSCLC,6.35 µM
same,GI50,HL-60(TB) leukemia,1.7 µM
same,TGI,HL-60(TB) leukemia,6.33 µM
same,GI50,SK-OV-3 ovarian,2.7 µM
same,TGI,SK-OV-3 ovarian,9.15 µM
same,GI50,LOX IMVI melanoma,1.61 µM
same,TGI,LOX IMVI melanoma,3 µM
same,GI50,HOP-92 NSCLC,1.23 µM
same,TGI,HOP-92 NSCLC,3.15 µM
same,GI50,OVCAR-8 ovarian,2.64 µM
same,TGI,OVCAR-8 ovarian,8.54 µM
same,GI50,UACC-257 melanoma,2.1 µM
same,TGI,UACC-257 melanoma,4.88 µM
same,GI50,SW-620 colon,1.81 µM
same,TGI,SW-620 colon,4.32 µM
same,GI50,EKVX NSCLC,1.82 µM
same,TGI,EKVX NSCLC,6.13 µM
same,GI50,HCC-2998 colon,2.23 µM
same,TGI,HCC-2998 colon,4.58 µM
same,GI50,T-47D breast,1.56 µM
same,TGI,T-47D breast,4.8 µM
same,GI50,SK-MEL-2 melanoma,1.98 µM
same,TGI,SK-MEL-2 melanoma,4 µM
same,GI50,RPMI-8226 leukemia,1.14 µM
same,TGI,RPMI-8226 leukemia,5.95 µM
same,GI50,786-0 renal,2.19 µM
same,TGI,786-0 renal,5.08 µM
same,GI50,U251 CNS,1.75 µM
same,TGI,U251 CNS,3.91 µM
same,GI50,PC-3 prostate,1.95 µM
same,TGI,PC-3 prostate,9.06 µM
same,GI50,MOLT-4 leukemia,1.61 µM
same,TGI,MOLT-4 leukemia,4.91 µM
same,GI50,MDA-MB-435,1.98 µM
same,TGI,MDA-MB-435,5.24 µM
same,GI50,RXF 393 renal,1.87 µM
same,TGI,RXF 393 renal,3.57 µM
same,GI50,MCF7 breast,2.25 µM
same,TGI,MCF7 breast,6.81 µM
same,GI50,HT29 colon,1.95 µM
same,TGI,HT29 colon,6.21 µM
